≈ marks a conversion by molar mass, not a printed value. Where two headings read alike, the source gives them in different places.
Tests used:
[1] = Solubility test (shake 37° C., 24 h, HPLC); format: physicochemical; conditions: x ± s; for solubility at 24 h: thermodynamic from solid
Procedure: The term “solubility” refers to the mass of solute dissolved when a solid substance reaches saturation state in 100 g solvent at a certain temperature. Solubility test refer to the following references: ZHU Shang-bin, et al. Preparation, characterization, and physicochemical properties of arbutin phospholipid complex[J]. Chinese Traditional and Herbal Drugs. 2020, 1-10.
Methods: Excess BFA and the compounds disclosed herein were added to 10 mL of three solvents, methanol, acetone and 5% DMSO+95% H2O, respectively, and shaken on a shaker at 37° C. at 100 r/min for 24 h. After 24 h, the samples were centrifuged at 15 000 r/min for 15 min to remove the undissolved compounds. The supernatant was filtered using a 0.45 μm membrane filter. The supernatant was appropriately diluted with methanol and contents of the compounds were determined by HPLC method to calculate the solubility.

[2] = tested on: Human cervical cancer cells Hela; test: Cell proliferation assay (CCK-8); format: cell-based; conditions: 72 h
Source text: (§1) CCK-8 method: The CCK-8 method is a highly sensitive, non-radioactive colorimetric assay for the determination of the number of viable cells in cell proliferation or cytotoxicity assays. The orange formazan dye produced by the bioreduction of CCK-8 by intracellular dehydrogenase is soluble in the cell culture medium, and the amount of formazan dye produced is proportional to the number of living cells. The kit used in this method is the tetrazolium salt-WST-8 (2-(2-methoxy-4-nitrophenyl)-3-(4-nitrophenyl)-5-(2,4-disulfophenyl)-2H-tetrazolium monosodium salt) developed by Dojindo Chemical Research Institute (Dojindo), which is capable of being reduced to a water-soluble formazan dye in the presence of the electronic carrier 1-Methoxy PMS.
(§2) Human cervical cancer cells Hela, pancreatic cancer cells PANC-1, esophageal cancer cells Eca-109, human leukemia cells K562, human lung cancer cells A549, human liver cancer cells HepG2, human gastric cancer cells MKN-45, human breast cancer cells MCF7 were cultured in DMEM medium containing 10% FBS (fetal bovine serum), 100 U/mL penicillin and 100 μg/ml streptomycin. Hepatocellular carcinoma cells Bel-7402 were cultured in RPMI-1640 medium containing 10% FBS (fetal bovine serum), 100 U/ml penicillin and 100 μg/ml streptomycin. All cells were placed in a cell culture incubator at 37° C. with 5% CO2. Cells fluid was changed every 3-5 days, and after 80% cell fusion, trypsin digestion and passaging were performed to keep the cells in good logarithmic growth phase.
(§3) All the samples to be tested were dissolved in DMSO.
(§4) Cells in logarithmic growth phase were inoculated in 96-well plates with 5000 cells/well respectively, and after 24 h of incubation, samples were added (final concentrations as shown in the table), and biplicate wells were set up for each sample. The amount of solvent of DMSO was not higher than 2‰. After 72 h, 10 μL of CCK-8 solution was added to each well and incubated for 1.5˜3 h at 37° C. The OD value at 450 nm was measured on an plate reader. Inhibition rate (%)=(1−[(OD450 dosed well−OD450 blank well)/(OD450 control well−OD450 blank well)])×100%
(§5) The fitted IC50 values were calculated using the log (inhibitor) vs. response—Variable slop analysis method in GraphPad Prism software.

[3] = tested on: human breast cancer cells MCF7; test: Cell proliferation assay (CCK-8); format: cell-based; conditions: MCF7, 72 h
Source text: as §1, §2, §3, §4, §5

[4] = tested on: human gastric cancer cells MKN-45; test: Cell proliferation assay (CCK-8); format: cell-based; conditions: MKN-45, 72 h
Source text: as §1, §2, §3, §4, §5

[5] = tested on: human leukemia cells K562; test: Cell proliferation assay (CCK-8); format: cell-based; conditions: K562, 72 h
Source text: as §1, §2, §3, §4, §5

[6] = tested on: human liver cancer cells HepG2; test: Cell proliferation assay (CCK-8); format: cell-based; conditions: HepG2, 72 h
Source text: as §1, §2, §3, §4, §5

[7] = tested on: human lung cancer cells A549; test: Cell proliferation assay (CCK-8); format: cell-based; conditions: A549, 72 h
Source text: as §1, §2, §3, §4, §5

[8] = tested on: esophageal cancer cells Eca-109; test: Cell proliferation assay (CCK-8); format: cell-based, human; conditions: Eca-109, 72 h
Source text: as §1, §2, §3, §4, §5

[9] = tested on: pancreatic cancer cells PANC-1; test: Cell proliferation assay (CCK-8); format: cell-based, human; conditions: PANC-1, 72 h
Source text: as §1, §2, §3, §4, §5

[10] = tested on: Kunming breed mice; test: Acute toxicity test, single intragastric administration; format: in vivo
Source text: Objective: Observation of toxic effects of compounds after a single intragastric administration (ig.) to mice
1) Agents: Compounds disclosed herein were formulated to a suitable concentration.
2) Animals: Kunming breed mice, weight 18-22 g, male.

[11] = Pharmacokinetic evaluation (plasma BFA by LC/MS/MS); format: in vivo, SD rats; conditions: iv
Procedure: SD rats were weighed after an overnight fasting of 15 hours and randomly grouped according to weights. The appropriate amount of the compound was accurately weighed, and a final volume of 5% DMSO, 10% Solutol, and 85% Saline was added and vortexed or sonicated to make a thorough mixing to provide a 4 mg/mL solution for intravenous administration (iv.). Venous blood was taken at the time points of 0, 0.083 (iv. group only), 0.25, 0.5, 1.0, 2.0, 5.0, 7.0 and 24 h, via jugular vein or other suitable means, with approximately 0.20 mL of each sample collected, anticoagulated with sodium heparin (with 6.25 μL of 200 mM DDVP/tube added), and placed on ice after collection. The plasma was separated by centrifugation within 2 hours (centrifugal force 6800 g, 6 min, 2-8° C.). The collected plasma samples were stored in a −70° C. refrigerator before analysis, and the remaining plasma samples after analysis were kept stored at −20° C. or −70° C. until LC/MS/MS analysis was performed. The accuracy of QC samples was evaluated while analyzing the samples, and more than 66% of the QC samples were required to have an accuracy between 80-120%. When plasma drug concentration-time curves were plotted, BLQ were recorded as 0. For the calculation of pharmacokinetic parameters, the concentration before dosing was counted as 0; BLQ before Cmax (including “No peak”) was counted as 0; BLQ after Cmax (including “No peak”) was not included in the calculation. Pharmacokinetic parameters such as AUC(0-t), T1/2, Cmax, Tmax and MRT were calculated according to the blood concentration data of BFA at different time points using WinNonlin.

[12] = SD rats, 20 mg/kg, blood concentration of BFA
[13] = aqueous with cosolvent or surfactant or cyclodextrin, 5% DMSO + 95% H2O, n = 3, read-out: Solubility, 5% DMSO + 95% H2O
[14] = organic solvent or mixture, acetone, n = 3, read-out: Solubility, Acetone
[15] = organic solvent or mixture, methanol, n = 3, read-out: Solubility, Methanol
[16] = mice, single ig., high and low doses (BFA effective amount conversion)
[17] = mice, single ig., high and low doses (BFA effective amount conversion), within 72 h
[18] = Sprague-Dawley, rat, in vivo, 30 mg/kg

Compound | solubility at 24 h [1, 13] [mg/mL] | solubility at 24 h [1, 14] [mg/mL] | solubility at 24 h [1, 15] [mg/mL] | IC50 ([2]; Homo sapiens) [nM] | IC50 ([3]; Homo sapiens) [nM] | IC50 ([4]; Homo sapiens) [nM] | IC50 ([5]; Homo sapiens) [nM] | IC50 ([6]; Homo sapiens) [nM] | IC50 ([7]; Homo sapiens) [nM] | IC50 ([8]; Homo sapiens) [nM] | IC50 ([9]; Homo sapiens) [nM] | Mental condition after administration [10, 16] | Death within 72 h [10, 17] | other results
C[C@H]1CCC/C=C/[C@@H]2C[C@H](O)C[C@H]2[C@H](O)/C=C/C(=O)O1 [BFA, Brefeldin A] |  |  |  |  |  |  |  |  |  |  |  |  |  | Solubility, 5% DMSO + 95% H2O ([1]; 5% DMSO + 95% H2O, n = 3): 0.085 ± 0.03 mg/mL; Solubility, Acetone ([1]; acetone, n = 3): 3.13 ± 1.24 mg/mL (≈ 11.2 mM); Solubility, Methanol ([1]; methanol, n = 3): 3.13 ± 1.24 mg/mL (≈ 11.2 mM); IC50 [2]: 100 to 1000 nM; IC50 [3]: < 100 nM; IC50 [4]: 100 to 1000 nM; IC50 [5]: 100 to 1000 nM; IC50 [6]: 100 to 1000 nM; IC50 [7]: 100 to 1000 nM; IC50 [8]: 100 to 1000 nM; IC50 [9]: < 100 nM; Mortality within 24 h ([10]; mice, single ig., high dose 1000 mg/kg, within 24 h): all animals died; Animals died within 72 h ([10]; mice, single ig., low dose 750 mg/kg, within 72 h): ⅔; AUCINF [11, 12]: 4448.31 ng·h/mL; AUClast [11, 12]: 4450.24 ng·h/mL; Cmax [11, 12]: 5744.26 ng/mL; MRTINF [11, 12]: 11.4 min; T1/2 [11, 12]: 25.2 min; Tmax [11, 12]: 15 min
COc1ccc(COC(=O)O[C@@H]2C[C@H]3[C@H](O)/C=C/C(=O)O[C@@H](C)CCC/C=C/[C@@H]3C2)cn1 [Compound 6] | 2.95 ± 1.61 | 70.6 ± 1.44 (≈ 158 mM) | 70.4 ± 3.35 (≈ 158 mM) | 100 to 1000 | 100 to 1000 | < 100 | 100 to 1000 | 100 to 1000 | < 100 | 100 to 1000 | 100 to 1000 | good mental conditions | no death | 
C[C@H]1CCC/C=C/[C@@H]2C[C@H](OC(=O)OCc3cnc4ccccc4c3)C[C@H]2[C@H](O)/C=C/C(=O)O1 [Compound 11, BFA-7-(quinoline-3-ylmethyl)carbonate] | 2.65 ± 1.8 | 67.6 ± 2.74 (≈ 145 mM) | 69.3 ± 4.35 (≈ 149 mM) | 100 to 1000 | 100 to 1000 | 100 to 1000 | 100 to 1000 | 100 to 1000 | 100 to 1000 | < 100 | < 100 | good mental conditions | no death | 
C[C@H]1CCC/C=C/[C@@H]2C[C@H](OC(=O)OCc3cccnc3)C[C@H]2[C@H](O)/C=C/C(=O)O1 [Compound 1, BFA-7-(pyridine-3-ylmethyl)carbonate] | 2.73 ± 0.21 | 68.7 ± 2.53 (≈ 165 mM) | 74.3 ± 2.52 (≈ 179 mM) | 100 to 1000 | 100 to 1000 | < 100 | 100 to 1000 | < 100 | < 100 | < 100 | 100 to 1000 | good mental conditions |  | Death within 72 h ([10]; mouse, in vivo): no death; AUCINF [11, 18]: 5763.29 ng·h/mL; AUClast [11, 18]: 5766.31 ng·h/mL; Cmax [11, 18]: 7192.20 ng/mL; MRTINF [11, 18]: 11.4 min; T1/2 [11, 18]: 15 min; Tmax [11, 18]: 15 min

— patent US12522590B2, “Brefeldin a derivatives, preparation method and use thereof” (OCEAN UNIVERSITY OF CHINA, priority 2019, dated 2026)
